Test results taken from article PMC3402233 (International Journal of Pharmaceutics, 2012).

Experiments:
Bcrp1 [1] = target: T1, Bcrp1 (Mus musculus, UniProt Q7TMS5); test: Bi-directional transport across MDCKII-Bcrp1 cell monolayers; type: in vitro ADME, murine
T1 sequence (Q7TMS5 1-657): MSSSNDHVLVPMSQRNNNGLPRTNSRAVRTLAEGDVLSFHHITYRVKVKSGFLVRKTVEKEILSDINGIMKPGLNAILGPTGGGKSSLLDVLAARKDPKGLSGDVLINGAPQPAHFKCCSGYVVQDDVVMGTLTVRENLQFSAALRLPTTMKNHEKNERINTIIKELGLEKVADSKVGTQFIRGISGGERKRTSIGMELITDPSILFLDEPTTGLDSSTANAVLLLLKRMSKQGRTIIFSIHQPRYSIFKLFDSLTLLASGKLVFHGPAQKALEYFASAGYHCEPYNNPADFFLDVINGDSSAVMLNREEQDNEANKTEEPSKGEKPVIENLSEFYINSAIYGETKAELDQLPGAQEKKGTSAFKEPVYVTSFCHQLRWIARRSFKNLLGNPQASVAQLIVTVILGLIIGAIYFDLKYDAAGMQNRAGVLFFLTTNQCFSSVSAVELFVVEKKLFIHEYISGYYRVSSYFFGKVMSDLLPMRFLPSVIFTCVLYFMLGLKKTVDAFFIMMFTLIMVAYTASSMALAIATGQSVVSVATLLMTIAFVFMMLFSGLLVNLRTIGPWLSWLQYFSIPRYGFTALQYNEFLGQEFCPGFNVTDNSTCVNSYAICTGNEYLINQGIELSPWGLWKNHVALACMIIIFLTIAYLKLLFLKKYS

[2] = Bi-directional transport across MDCKII-WT cell monolayers; type: in vitro ADME, canine; settings: dog, MDCK
MDCK-WT cell monolayers = test: as above; type: in vitro ADME, canine; settings: 5μM vandetanib
[3] = Brain accumulation and plasma pharmacokinetics of vandetanib in FVB mice; type: in vivo, male FVB wild type mice
P-gp (MDR1) [4] = target: T2, P-gp (MDR1) (Homo sapiens, UniProt P08183); test: Cellular accumulation of vandetanib in MDCKII-MDR1 vs parent WT cells; settings: 100nM vandetanib, 60 min accumulation
P-gp (MDR1) [5] = target: T2, P-gp (MDR1); test: Bi-directional transport across MDCKII-MDR1 cell monolayers; type: in vitro ADME
Bcrp1 [6] = target: T1, Bcrp1; test: Bcrp1 inhibition: [3H]abacavir accumulation in MDCK-Bcrp1 cells; type: cell-based, murine; settings: 10, 25 and 50μM inhibitor
P-gp = P-gp (Homo sapiens, UniProt P08183); test: P-gp inhibition: [3H]digoxin accumulation in MDCK-MDR1 cells; type: cell-based
[7] = male, FVB, mouse, plasma, iv, 5 mg/kg

T2 sequence (P08183 whole entry): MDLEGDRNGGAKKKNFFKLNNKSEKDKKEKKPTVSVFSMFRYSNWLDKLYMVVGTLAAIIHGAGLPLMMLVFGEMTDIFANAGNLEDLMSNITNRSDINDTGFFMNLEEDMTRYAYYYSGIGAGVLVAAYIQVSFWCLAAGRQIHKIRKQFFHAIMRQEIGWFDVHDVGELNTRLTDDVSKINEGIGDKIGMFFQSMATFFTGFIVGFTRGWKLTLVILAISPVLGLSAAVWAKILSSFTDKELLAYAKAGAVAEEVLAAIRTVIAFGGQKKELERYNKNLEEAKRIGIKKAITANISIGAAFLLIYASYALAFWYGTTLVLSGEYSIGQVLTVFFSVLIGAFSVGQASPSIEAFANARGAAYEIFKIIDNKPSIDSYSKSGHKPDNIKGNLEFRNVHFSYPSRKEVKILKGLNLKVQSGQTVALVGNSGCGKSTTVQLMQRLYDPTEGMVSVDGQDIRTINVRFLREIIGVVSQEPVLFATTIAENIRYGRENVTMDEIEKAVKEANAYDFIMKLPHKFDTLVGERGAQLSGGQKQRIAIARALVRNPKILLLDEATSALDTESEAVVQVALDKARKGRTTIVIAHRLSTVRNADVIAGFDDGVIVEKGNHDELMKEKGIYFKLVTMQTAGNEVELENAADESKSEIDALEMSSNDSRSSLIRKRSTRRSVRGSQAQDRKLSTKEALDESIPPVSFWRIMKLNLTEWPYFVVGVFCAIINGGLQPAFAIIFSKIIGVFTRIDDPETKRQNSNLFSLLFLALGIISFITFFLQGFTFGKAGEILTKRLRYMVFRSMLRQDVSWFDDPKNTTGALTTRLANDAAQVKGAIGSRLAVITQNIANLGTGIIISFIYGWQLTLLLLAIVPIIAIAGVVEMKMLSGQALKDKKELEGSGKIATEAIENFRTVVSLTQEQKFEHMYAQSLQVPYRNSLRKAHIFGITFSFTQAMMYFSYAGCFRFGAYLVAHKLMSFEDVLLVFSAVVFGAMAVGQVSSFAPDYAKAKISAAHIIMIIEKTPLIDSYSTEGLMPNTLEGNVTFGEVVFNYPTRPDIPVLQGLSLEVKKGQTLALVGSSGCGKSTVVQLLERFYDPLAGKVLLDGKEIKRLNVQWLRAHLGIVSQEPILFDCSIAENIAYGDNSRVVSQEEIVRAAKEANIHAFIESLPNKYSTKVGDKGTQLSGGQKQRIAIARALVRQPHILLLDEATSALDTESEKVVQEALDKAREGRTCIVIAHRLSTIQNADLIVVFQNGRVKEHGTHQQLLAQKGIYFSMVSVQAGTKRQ
Sequence of P-gp (P08183 whole entry): as above

Row | Structure (SMILES) | Papp A→B at 240 min, 5 μM (Bcrp1 [1]) [×10⁻⁶ cm/s] | Papp B→A at 240 min, 5 μM (Bcrp1 [1]) [×10⁻⁶ cm/s] | efflux ratio at 240 min, 5 μM (Bcrp1 [1]) | Papp A→B at 240 min, 5 μM [2] [×10⁻⁶ cm/s] | Papp B→A at 240 min, 5 μM [2] [×10⁻⁶ cm/s] | efflux ratio at 240 min, 5 μM [2] | Directionality of vandetanib transport across WT cells (MDCK-WT cell monolayers) | AUC(0-t) ([3]; male, FVB, mouse, brain, iv, 5 mg/kg) [ng·h/mL] | AUC(0-t) [3, 7] [ng·h/mL] | Vd [3, 7] [L/kg] | clearance [3, 7] [mL/min/kg] | Brain concentrations compared with plasma concentrations ([3]; vandetanib 5mg/kg i.v. alone, 15, 30, 60 and 120min) | Vandetanib accumulation in MDR1 overexpressing cells versus WT cells (P-gp (MDR1) [4]) | Directional flux of vandetanib across MDR1 transfected cells (P-gp (MDR1) [5]; 5μM vandetanib) | Papp A→B at 240 min, 5 μM (P-gp (MDR1) [5]; dog, MDCK-MDR1) [×10⁻⁶ cm/s] | Papp B→A at 240 min, 5 μM (P-gp (MDR1) [5]; dog, MDCK-MDR1) [×10⁻⁶ cm/s] | efflux ratio at 240 min, 5 μM (P-gp (MDR1) [5]; dog, MDCK-MDR1) | Intracellular accumulation of [3H]abacavir in MDCK-Bcrp1 cells in the presence of inhibitor (Bcrp1 [6]) | IC50 (P-gp) [µM]
1 | COc1cc2c(Nc3ccc(Br)cc3F)ncnc2cc1OCC1CCN(C)CC1 [Vandetanib] | 5.66 ± 1.26 | 42.3 ± 2.64 | 7.5 | 7.57 ± 0.52 | 8.08 ± 0.17 | 1.06 | no directionality in transport | 1050 | 5090 | 1.3 | 9.36 | Brain concentrations were significantly lower than the plasma concentration | not statistically different from WT cells | No significant difference was observed in the directional flux | 5.73 ± 0.29 | 4.66 ± 0.26 | 0.81 |  | 
2 | CO[C@H]1C[C@@H]2CC[C@@H](C)[C@@](O)(O2)C(=O)C(=O)N2CCCC[C@H]2C(=O)O[C@H]([C@H](C)C[C@@H]2CC[C@@H](OCCO)[C@H](OC)C2)CC(=O)[C@H](C)/C=C(\C)[C@@H](O)[C@@H](OC)C(=O)[C@H](C)C[C@H](C)/C=C/C=C/C=C/1C [everolimus] |  |  |  |  |  |  |  |  |  |  |  |  |  |  |  |  |  | increased significantly | 3
3 | CO[C@H]1C[C@@H]2CC[C@@H](C)[C@@](O)(O2)C(=O)C(=O)N2CCCC[C@H]2C(=O)O[C@H]([C@H](C)C[C@@H]2CC[C@@H](OC(=O)C(C)(CO)CO)[C@H](OC)C2)CC(=O)[C@H](C)/C=C(\C)[C@@H](O)[C@@H](OC)C(=O)[C@H](C)C[C@H](C)/C=C/C=C/C=C/1C [temsirolimus] |  |  |  |  |  |  |  |  |  |  |  |  |  |  |  |  |  | increased significantly | 3.5
